{"source": "patent US20220395522A1", "about": "“Methods of Use of Glucosamine for Increasing Nitrogen Retention” (TSI Bioproducts (Xuzhou) Co., Ltd., priority 2021, published 2022)", "test_in_all_cases": "Fecal microbiota analysis, differential abundance of taxa (MaAsLin)", "type_in_all_cases": "in vivo, human", "key": {"Bacillaceae": {"system": "Bacillaceae", "conditions": "after GLU intake compared to baseline (GLU (Pre)), p=0.038", "method": "(§1) To determine significant differences between bacterial alpha diversity metrics (the measure of microbiome diversity within a single sample), a paired t-test was used between alpha diversity values of different sample groups (p<0.05). Significant differences in beta diversity (the measure of similarity or dissimilarity of multiple samples) between groups was determined using the qiime diversity beta-group-significance command in QIIME2 as well, which performs pairwise Permutational Multivariate Analysis of Variance (PERMANOVA) tests on beta diversity distance matrices (p<0.05). Differential abundance of taxa between sample groups were evaluated using Multivariate Analysis by Linear Models (MaAsLin) in R version 4.0.2 using the Maaslin2 command in the Maaslin2 R library on rarified taxonomy data generated by QIIME2 (p<0.05). […]\n(§2) A fecal microbiota analysis was further conducted. […] The Qubit Fluorometer (Thermo Fisher Scientific, San Francisco, Calif.) was used to quantify PCR product concentrations prior to combining the PCR products in equal quantities for purification with the Wizard SV Gel and PCR Cleanup kit (Promega, Madison, Wis.). […] Library purity and concentration was measured on a 2100 Bioanalyzer System (Agilent Technologies, Santa Clara, Calif.). […]\n(§3) Ion Torrent BAM files of raw DNA sequencing data were converted to the FASTQ format using BEDTools and then analyzed using Quantitative Insights into Microbiology (QIIME2) version 2019.10. Reads shorter than 200 bp in length were removed. […] Multiple sequence Alignment using Fast Fourier Transform (MAFFT) was used for read alignment, while gapped and unconserved alignments were filtered using the alignment mask plugin. […] Sequences of mitochondria and chloroplast origin were filtered from downstream analysis, leaving a total of 1,391,259 total high-quality reads associated with taxonomic annotations. Samples were rarified to 7,874 reads for alpha and beta diversity analysis. […]"}, "Peptococcaceae": {"system": "Peptococcaceae", "conditions": "after GLU intake compared to baseline (GLU (Pre)), p=0.021", "method": "as §1, §2, §3"}, "Pseudomonadaceae": {"system": "Pseudomonadaceae", "conditions": "after GLU intake compared to baseline (GLU (Pre)), p=0.014", "method": "as §1, §2, §3"}}}
{"smiles": "Cl.N[C@H]1C(O)O[C@H](CO)[C@@H](O)[C@@H]1O", "note": "(stereo partly drawn) [GLU, glucosamine hydrochloride]", "values": [{"measurement": "Proportion of Bacillaceae", "setting": "Bacillaceae", "result": "not detected"}, {"measurement": "Proportion of Peptococcaceae, Log2 FC", "setting": "Peptococcaceae", "result": "−4.52"}, {"measurement": "Proportion of Pseudomonadaceae, Log2 FC", "setting": "Pseudomonadaceae", "result": "−1.05"}]}
